From patent US6461997B1, “Triazole sulfones having herbicidal activity” (Monsanto Technology LLC, priority 1999, dated 2002)

Tests used:
[1] = tested on: PANMI (wild proso millet); assay: Pre-emergence herbicidal activity, warm season; assay type: in vivo, Panicum miliaceum; settings: GR80 = lowest tested rate (300, 100, 30, 10 g/ha) with 80% or greater inhibition; approx. 14 days after treating; 30/21° C.
Method in brief: (§1)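 Each pot received seeds on sterilized fertilized topsoil, a soil cover, and a surface spray of compound (300–10 g/ha, acetone/water 50:50). Plants grew about 14 days at 30/21 °C (PANMI, DIGSA) or 18/13 °C (ALOMY, POLCO) before inhibition was rated against untreated pots to give GR80.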

[2] = tested on: PANDI (fall panicum); assay: Pre-emergence herbicidal activity, warm season; assay type: in vivo, Panicum dichotomiflorum; settings: GR80 = lowest tested rate (300, 100, 30, 10 g/ha) with 80% or greater inhibition; approx. 14 days after treating; 30/21° C.
Method in brief: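 Activity is expressed as the rate giving 80% inhibition, with 300, 100, 30 and 10 g/ha typically tested. An asterisk marks activity short of 80% at the top rate. Warm-season grasses were held at 30/21 °C; cool-season blackgrass and wild buckwheat at 18/13 °C; scoring at about 14 days.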

[3] = tested on: POLCO (wild buckwheat); assay: Pre-emergence herbicidal activity, cool season; assay type: in vivo, Polygonum convolvulus; settings: lowest tested rate with 80% or greater inhibition; rates 300, 100, 30, 10 g/ha; about 14 days
Method in brief: as §1

[4] = tested on: SOLNI (black nightshade); assay: Pre-plant incorporated (PPI) herbicidal activity, warm season; assay type: in vivo, Solanum nigrum; settings: for Percent inhibition SOLNI: PPI application; for PPI activity (GR80) SOLNI: pre-plant incorporated, GR80 = lowest tested rate with 80% or greater inhibition, approx. 14 days after treating, 30/21° C.
Experimental: (§2) In another set of tests, the pre-plant incorporated (PPI) activity of compounds of this invention was evaluated on the same species as for the pre-emergence tests described above. In the PPI tests the following procedure, designed to simulate PPI application, was used.
(§3) A pre-prepared topsoil mixture (described above) was placed in a pot and compacted to a depth of 1.0 to 1.25 cm from the top of the pot. Seeds of each of several monocotyledonous and dicotyledonous annual plant species were placed on top of the soil. A sufficient quantity of soil to cover the seeds and level fill the pot was weighed into an open container. A known amount of the test compound was dissolved or suspended in an organic solvent and applied by spraying to this cover soil. The cover soil was thoroughly mixed to distribute the test compound throughout the cover soil, and was then applied as a cover layer over the seeds. Untreated soil was used as a cover layer for control pots. After treatment the plants were placed in a greenhouse where they received 0.64 cm of overhead irrigation. All subsequent watering consisted of a light overhead mist and/or subirrigation as needed for germination and growth. Tables 9 and 10 below relate to warm season plant species which were placed after pre-emergence treatment in a greenhouse with a 30/21° C. day/night temperature regime. Tables 11 and 12 below relates to cool season plant species placed after pre-emergence treatment in a greenhouse or growth chamber with an 18/13° C. day/night temperature regime. Only the compounds of Examples 1, 6, 8, 11, 13 and 15-20 were included in PPI tests.
(§4) Approximately 14 days after planting and treating, the plants were observed and herbicidal efficacy recorded as percent inhibition by comparison with untreated plants.

[5] = tested on: BROTE (downy brome); assay: Pre-plant incorporated (PPI) herbicidal activity, cool season; assay type: in vivo, Bromus tectorum; settings: for Percent inhibition BROTE: weed, PPI application; for PPI activity GR80, BROTE: pre-plant incorporated, lowest tested rate with 80% or greater inhibition, about 14 days
Experimental: as §2, §3, §4

[6] = tested on: POAAN (annual bluegrass); assay: as above; assay type: in vivo, Poa annua; settings: weed, PPI application
Experimental: as §2, §3, §4

CCN(CC)C(=O)n1cnc(S(=O)(=O)C(F)(F)F)n1 [Example 2]
Pre-emergence activity (GR80) PANMI [1]: 30 g/ha | Pre-emergence activity (GR80) PANDI [2]: 30 g/ha | Pre-emergence activity GR80, POLCO [3]: [empty] | Percent inhibition SOLNI ([4]; 30 g/ha): 30% | Percent inhibition SOLNI ([4]; 100 g/ha): 90% | Percent inhibition SOLNI ([4]; 300 g/ha): 100% | Percent inhibition SOLNI ([4]; 900 g/ha): 90% | Percent inhibition BROTE ([5]; 30 g/ha): 0% | Percent inhibition BROTE ([5]; 100 g/ha): 40% | Percent inhibition BROTE ([5]; 300 g/ha): 50% | Percent inhibition BROTE ([5]; 900 g/ha): 100% | Percent inhibition POAAN ([6]; 30 g/ha): 80% | Percent inhibition POAAN ([6]; 100 g/ha): 100% | Percent inhibition POAAN ([6]; 300 g/ha): 100% | Percent inhibition POAAN ([6]; 900 g/ha): 100%

CCN(CC)C(=O)n1cnc(S(=O)(=O)C(F)(F)Cl)n1 [Example 3]
Pre-emergence activity (GR80) PANMI [1]: 30 g/ha | Pre-emergence activity (GR80) PANDI [2]: 100 g/ha | Pre-emergence activity GR80, POLCO [3]: [empty] | Percent inhibition SOLNI ([4]; 30 g/ha): 70% | Percent inhibition SOLNI ([4]; 100 g/ha): 100% | Percent inhibition SOLNI ([4]; 300 g/ha): 100% | Percent inhibition SOLNI ([4]; 900 g/ha): 100% | Percent inhibition BROTE ([5]; 30 g/ha): 0% | Percent inhibition BROTE ([5]; 100 g/ha): 30% | Percent inhibition BROTE ([5]; 300 g/ha): 90% | Percent inhibition BROTE ([5]; 900 g/ha): 95% | Percent inhibition POAAN ([6]; 30 g/ha): 70% | Percent inhibition POAAN ([6]; 100 g/ha): 100% | Percent inhibition POAAN ([6]; 300 g/ha): 100% | Percent inhibition POAAN ([6]; 900 g/ha): 100%

CCN(CC)C(=O)n1cnc(S(=O)(=O)C(F)(F)C(F)(F)Br)n1 [Example 4]
Pre-emergence activity (GR80) PANMI [1]: 100 g/ha | Pre-emergence activity (GR80) PANDI [2]: 30 g/ha | Pre-emergence activity GR80, POLCO [3]: 300 g/ha | Percent inhibition SOLNI ([4]; 30 g/ha): 60% | Percent inhibition SOLNI ([4]; 100 g/ha): 95% | Percent inhibition SOLNI ([4]; 300 g/ha): 100% | Percent inhibition SOLNI ([4]; 900 g/ha): 100% | Percent inhibition BROTE ([5]; 30 g/ha): 0% | Percent inhibition BROTE ([5]; 100 g/ha): 50% | Percent inhibition BROTE ([5]; 300 g/ha): 85% | Percent inhibition BROTE ([5]; 900 g/ha): 90% | Percent inhibition POAAN ([6]; 30 g/ha): 95% | Percent inhibition POAAN ([6]; 100 g/ha): 75% | Percent inhibition POAAN ([6]; 300 g/ha): 100% | Percent inhibition POAAN ([6]; 900 g/ha): 100%

CCN(CC)C(=O)n1cnc(S(=O)(=O)C(F)(F)C(=O)c2ccccc2)n1 [Example 6]
Pre-emergence activity (GR80) PANMI [1]: 300 g/ha | Pre-emergence activity (GR80) PANDI [2]: 300 g/ha | Pre-emergence activity GR80, POLCO [3]: 300 g/ha | PPI activity (GR80) SOLNI [4]: 100 g/ha | PPI activity GR80, BROTE [5]: * (activity observed, at least at highest rate, but <80% inhibition)

CCN(CC)C(=O)n1cnc(S(=O)(=O)C(F)(F)C(F)F)n1 [Example 16]
Pre-emergence activity (GR80) PANMI [1]: 30 g/ha | Pre-emergence activity (GR80) PANDI [2]: 100 g/ha | Pre-emergence activity GR80, POLCO [3]: [empty] | Percent inhibition SOLNI ([4]; 10 g/ha): 100% | Percent inhibition SOLNI ([4]; 100 g/ha): 100% | Percent inhibition SOLNI ([4]; 300 g/ha): 95% | Percent inhibition SOLNI ([4]; 900 g/ha): 100% | PPI activity (GR80) SOLNI [4]: 30 g/ha | PPI activity GR80, BROTE [5]: 300 g/ha | Percent inhibition BROTE ([5]; 10 g/ha): 0% | Percent inhibition BROTE ([5]; 30 g/ha): 0% | Percent inhibition BROTE ([5]; 100 g/ha): 35% | Percent inhibition BROTE ([5]; 300 g/ha): 40% | Percent inhibition BROTE ([5]; 900 g/ha): 90% | Percent inhibition POAAN ([6]; 10 g/ha): 20% | Percent inhibition POAAN ([6]; 30 g/ha): 50% | Percent inhibition POAAN ([6]; 100 g/ha): 65% | Percent inhibition POAAN ([6]; 300 g/ha): 100% | Percent inhibition POAAN ([6]; 900 g/ha): 100%
